Reference: patent publication US7297704B2, “Cycloalkyfused indole, benzothiophene, benzofuran and idene derivatives” (Wyeth, priority 2005, dated 2007)
Counter-ions that a name gives are not always drawn.

Tests used:
Human 5-HT1A Receptor [1] = biological target: T1, Human 5-HT1A Receptor (Homo sapiens, UniProt P08908); experiment: 8-OH-DPAT binding, human 5-HT1A receptor cell line; details: stably transfected CHO cells, 8-OH-DPAT ligand 1.5 nM; read-out: h5-HT1A Affinity, Ki
T1 construct: expressed in transfected cells; host or cells: CHO cells
T1 sequence (P08908 1-422): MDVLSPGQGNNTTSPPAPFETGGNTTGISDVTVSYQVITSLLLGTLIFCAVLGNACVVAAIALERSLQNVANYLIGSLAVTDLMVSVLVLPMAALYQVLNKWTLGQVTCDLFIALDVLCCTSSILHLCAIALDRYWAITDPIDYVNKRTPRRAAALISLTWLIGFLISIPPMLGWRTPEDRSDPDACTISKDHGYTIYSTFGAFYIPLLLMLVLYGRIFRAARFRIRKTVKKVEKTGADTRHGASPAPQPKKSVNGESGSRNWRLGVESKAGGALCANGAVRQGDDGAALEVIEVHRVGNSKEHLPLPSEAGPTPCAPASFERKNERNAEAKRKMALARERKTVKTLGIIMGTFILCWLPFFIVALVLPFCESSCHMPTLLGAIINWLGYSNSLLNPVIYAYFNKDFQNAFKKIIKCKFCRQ
Procedure: Stably transfected CHO cells were grown in DMEM containing 10% heat inactivated FBS and non-essential amino acids. Cells were scraped off the plate, transferred to centrifuge tubes, and washed twice by centrifugation (2000 rpm for 10 min., 4° C.) in buffer (50 mM Tris, pH 7.5). The resulting pellets were aliquoted and placed at −80° C. On day of assay, the cells were thawed on ice, and resuspended in buffer. The binding assay was performed in a 96 well microtiter plate in a total volume of […]. Non-specific binding was determined in the presence of […] 5HT; final ligand concentration was 1.5 nM. Following a 30 min. incubation at room temperature, the reaction was terminated by the addition of ice cold buffer and rapid filtration through a GF/B filter presoaked for 30 min. in 0.5% PEI. Compounds were initially tested in a single point assay to determine percent inhibition at […]. Subsequently, Ki values were determined for compounds defined to be active. Percent inhibition Ki was determined by RFComp (Lundon Software), with Serotonin 8-OH-DPAT as the reference compounds.

Human 5-HT1A Receptor [2] = biological target: T1, Human 5-HT1A Receptor; experiment: cAMP RIA in human 5-HT1A receptor cell line; format: cell-based; details: superscript b; reversal of agonist activity, CHO cells; read-out: c-AMP, (IC50)^b
Procedure: Stably transfected CHO cells were grown in DMEM containing 10% heat inactivated FBS and non-essential amino acids. The cells were plated at a density of 10^6 cells per well in a 96 well plate and incubated for 2 days in a CO2 incubator. On the second day, the media was replaced with 0.1 ml Krebs and incubated 15 minutes at 37° C. The media was then replaced with Krebs buffer containing 500 uM IBMX and incubated 5 minutes at 37° C. Wells were treated with forskolin (1 uM final conc) followed immediately by test compound (0.1 and 1 uM for initial screen) and incubated for an additional 10 min at 37° C. Reaction was terminated by removal of the media and addition of 0.5 ml ice cold assay buffer (supplied in RIA kit). Plates are stored at −20° C. prior to assessment of cAMP formation by RIA. Compounds shown to have no agonist activities were further analyzed for ability to reverse agonist activity. In separate experiments, 6 concentrations of antagonist were preincubated for 20 min prior to the addition of agonist and forskolin. Cells were harvested as described. The cAMP kit is supplied by Amersham and the RIA is performed as per kit instructions. In the initial screen, percent inhibition of forskolin stimulated cAMP was measured. In the secondary screen, IC50 of reversal of agonist activity was measured. Calculations of IC50 were performed by GraphPad Prism. Serotonin, BMY 7378, Buspirone, and 8-OH-DPAT were used as reference compounds.

serotonin transporter = biological target: T2, serotonin transporter (Rattus norvegicus, UniProt P31652); experiment: 3H-paroxetine binding to the serotonin transporter, rat frontal cortical membranes; details: values printed in parentheses, 3H-paroxetine 0.1 nM, read-out: rb-5-HH-T, (IC50)
T2 construct: frontal cortical membranes prepared from male S.D. rats; from tissue; host or cells: rat frontal cortex membranes (male Sprague-Dawley)
Procedure: A protocol similar to that used by Cheetham et al. (Neuropharmacol. 32:737, 1993) was used to determine the affinity of compounds for the serotonin transporter. Briefly, frontal cortical membranes prepared from male S.D. rats were incubated with ^3H-paroxetine (0.1 nM) for 60 min at 25° C. All tubes also contained either vehicle, test compound (one to eight concentrations), or a saturating concentration of fluoxetine (10 μM) to define […]. All reactions are terminated by the addition of ice cold Tris buffer followed by rapid filtration using a Tom Tech filtration device to separate bound from free ^3H-paroxetine. Bound radioactivity was quantitated using a Wallac 1205 Beta Plate® counter. Nonlinear regression analysis was used to determine IC50 values which were converted to Ki values using the method of Cheng and Prusoff (Biochem. Pharmacol. 22: 3099, 1973); […].

T2 sequence (P31652 whole entry): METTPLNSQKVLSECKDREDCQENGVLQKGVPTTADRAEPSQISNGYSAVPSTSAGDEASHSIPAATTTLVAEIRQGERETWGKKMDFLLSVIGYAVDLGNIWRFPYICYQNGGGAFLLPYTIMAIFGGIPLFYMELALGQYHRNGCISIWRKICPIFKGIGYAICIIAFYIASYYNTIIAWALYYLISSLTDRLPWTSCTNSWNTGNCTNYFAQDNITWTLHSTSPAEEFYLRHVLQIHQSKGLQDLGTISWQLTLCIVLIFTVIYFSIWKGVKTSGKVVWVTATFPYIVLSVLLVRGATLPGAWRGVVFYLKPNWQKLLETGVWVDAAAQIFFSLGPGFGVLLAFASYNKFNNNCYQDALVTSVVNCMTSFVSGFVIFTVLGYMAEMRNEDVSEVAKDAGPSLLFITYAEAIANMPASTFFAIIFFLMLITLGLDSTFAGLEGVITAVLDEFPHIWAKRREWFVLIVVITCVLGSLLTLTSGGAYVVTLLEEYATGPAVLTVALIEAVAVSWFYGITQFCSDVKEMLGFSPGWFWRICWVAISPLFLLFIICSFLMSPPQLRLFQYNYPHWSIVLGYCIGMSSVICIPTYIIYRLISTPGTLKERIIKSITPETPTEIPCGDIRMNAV

Compound	melting point	Ki (Human 5-HT1A Receptor [1])	IC50 (Human 5-HT1A Receptor [2])	IC50 (serotonin transporter)
Cc1ccc2c3c(ccc2n1)OC[C@H](CNC[C@@H]1CCc2[nH]c4ccc(F)cc4c2C1)O3 (as salt: hydrochloride) [Example 5, N-{[(3R)-6-fluoro-2,3,4,9-tetrahydro-1H-carbazol-3-yl]methyl}-N-{[(2S)-8-methyl-2,3-dihydro[1,4]dioxino[2,3-f]quinolin-2-yl]methyl}amine]	229 to 236 °C			
CCN(CC1CCc2[nH]c3ccc(F)cc3c2C1)C[C@H]1COc2ccc3nc(C)ccc3c2O1.Cl.Cl.O.O (stereo partly drawn) (hydrate or solvate) [Example 50, N-[(6-Fluoro-2,3,4,9-tetrahydro-1H-carbazol-3-yl)methyl]-N-{[(2S)-8-methyl-2,3-dihydro[1,4]dioxino[2,3-f]quinolin-2-yl]methyl}ethanamine dihydrochloride dihydrate]	234 to 249 °C			
CCCN(CC1CCc2[nH]c3ccc(F)cc3c2C1)C[C@H]1COc2ccc3nc(C)ccc3c2O1.Cl.Cl.O.O (stereo partly drawn) (hydrate or solvate) [Example 51, N-[(6-Fluoro-2,3,4,9-tetrahydro-1H-carbazol-3-yl)methyl]-N-{[(2S)-8-methyl-2,3-dihydro[1,4]dioxino[2,3-f]quinolin-2-yl]methyl}propan-1-amine dihydrochloride dihydrate]	187 to 201 °C			
Cc1ccc2c3c(ccc2n1)OC[C@H](CNC[C@H]1CCc2[nH]c4ccc(F)cc4c2C1)O3 [Example 3, S,S-(6-Fluoro-2,3,4,9-tetrahydro-1H-carbazol-3-ylmethyl)-(8-methyl-2,3-dihydro-[1,4]dioxino[2,3-f]quinolin-2-ylmethyl)-amine]		1.26 nM	79 nM	6.61 nM

More lines, now with the values ahead:

melting point	Ki (Human 5-HT1A Receptor [1])	IC50 (Human 5-HT1A Receptor [2])	IC50 (serotonin transporter)	Compound
201 to 222 °C				Cc1ccc2c3c(ccc2n1)OCC(CN(CC1CCc2c(c4cc(F)ccc4n2C)C1)C(C)C)O3 (as salt: hydrochloride) (hydrate or solvate) [Example 65, N-[(6-Fluoro-9-methyl-2,3,4,9-tetrahydro-1H-carbazol-3-yl)methyl]-N-([(2S)-8-methyl-2,3-dihydro[1,4]dioxino[2,3-f]quinolin-2-yl]methylpropan-2-aminemonohydrochloride monohydrate]
220 to 226 °C				Cc1ccc2c3c(ccc2n1)OC[C@H](CNC[C@H]1CCc2c(c4cc(F)ccc4n2C)C1)O3 (as salt: hydrochloride) [Example 7]
242 to 260 °C				Cc1ccc2c3c(ccc2n1)OC[C@H](CNC[C@@H]1CCc2c(c4cc(F)ccc4n2C)C1)O3 (as salt: hydrochloride) [Example 8, N-{[(3R)-6-fluoro-9-methyl-2,3,4,9-tetrahydro-1H-carbazol-3-yl]methyl}-N-{[(2S)-8-methyl-2,3-dihydro[1,4]dioxino[2,3-f]quinolin-2-yl]methyl}amine]
	2.03 nM	144 nM	2.56 nM	Cc1ccc2c3c(ccc2n1)OC[C@H](CNC[C@@H]1CCc2[nH]c4ccc(F)cc4c2C1)O3 [Example 5, N-{[(3R)-6-fluoro-2,3,4,9-tetrahydro-1H-carbazol-3-yl]methyl}-N-{[(2S)-8-methyl-2,3-dihydro[1,4]dioxino[2,3-f]quinolin-2-yl]methyl}amine]
	0.34 nM	78.5 nM	7.74 nM	Cc1ccc2c3c(ccc2n1)OC[C@H](CNC[C@H]1CCc2c(c4cc(F)ccc4n2C)C1)O3 [Example 7]
	2.5 nM	39.4 nM	3.1 nM	Cc1ccc2c3c(ccc2n1)OC[C@H](CNC[C@@H]1CCc2c(c4cc(F)ccc4n2C)C1)O3 [Example 8, N-{[(3R)-6-fluoro-9-methyl-2,3,4,9-tetrahydro-1H-carbazol-3-yl]methyl}-N-{[(2S)-8-methyl-2,3-dihydro[1,4]dioxino[2,3-f]quinolin-2-yl]methyl}amine]
